{"source": "patent US20260262643A1", "about": "“HERBICIDAL BENZOXAZINES” (FMC CORPORATION, priority 2022, published 2026)", "key": {"rice": {"system": "rice", "test": "Test B flooded paddy test", "type": "in vivo, Oryza sativa", "details": "Oryza sativa, 312 h; 250 g ai/ha, Flood, 13 days, 0 to 100 scale (0 no effect, 100 complete control); read-out: Plant response rating, Rice", "outline": "(§1)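 Species grown to 2-leaf stage; pots flooded 3 cm above soil and compound applied directly to paddy water, depth maintained throughout. After 13 days in greenhouse, plants visually rated against controls on 0–100 scale (0 no effect, 100 complete control); dash means no result.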"}, "blackgrass [1]": {"system": "blackgrass", "test": "Test A preemergence", "type": "in vivo, Alopecurus myosuroides", "details": "Alopecurus myosuroides, pre-emergence, 240 h, read-out: Plant response rating, Blackgrass; for pest or weed control at 125 g/ha: 125 g ai/ha, visual injury after 10 days, 0 to 100 scale, 0 is no effect, 100 is complete control; for pest or weed control at 500 g/ha: 500 g ai/ha, 0 to 100 scale (0 no effect, 100 complete control), 10 days", "outline": "(§2)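 Weeds and crops in loam–sand blend were sprayed preemergence onto soil or postemergence at 2–10 cm (one- to two-leaf stage). Test chemicals were in a non-phytotoxic solvent with surfactant. After 10 days in the greenhouse, injury was rated visually against untreated controls on a 0 (no effect) to 100 (complete control) scale.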"}, "foxtail, giant": {"system": "foxtail, giant", "test": "Test A postemergence", "type": "in vivo, Setaria faberi", "details": "Setaria faberi, post-emergence, 240 h, postemergence, 10 days, 0 to 100 scale (0 no effect, 100 complete control); for pest or weed control at 125 g/ha: 125 g ai/ha; for pest or weed control at 500 g/ha: 500 g ai/ha", "outline": "as §2"}, "goosegrass": {"system": "goosegrass", "test": "Test A postemergence", "type": "in vivo, Eleusine indica", "details": "Eleusine indica, post-emergence, 240 h, postemergence, 10 days, 0 to 100 scale (0 no effect, 100 complete control); for pest or weed control at 125 g/ha: 125 g ai/ha; for pest or weed control at 500 g/ha: 500 g ai/ha", "outline": "as §2"}, "ragweed [2]": {"system": "ragweed", "test": "Test A preemergence", "type": "in vivo, Ambrosia artemisiifolia", "details": "Ambrosia artemisiifolia, pre-emergence, 240 h, read-out: Plant response rating, Ragweed; for pest or weed control at 125 g/ha: 125 g ai/ha, visual injury after 10 days, 0 to 100 scale, 0 is no effect, 100 is complete control; for pest or weed control at 500 g/ha: 500 g ai/ha, 0 to 100 scale (0 no effect, 100 complete control), 10 days", "outline": "as §2"}, "wheat [3]": {"system": "wheat", "test": "Test A postemergence", "type": "in vivo, Triticum aestivum", "details": "Triticum aestivum, post-emergence, 240 h, postemergence, 10 days, 0 to 100 scale (0 no effect, 100 complete control); for plant injury at 500 g/ha: 500 g ai/ha, visual injury, read-out: Plant response rating, Wheat", "outline": "as §2"}, "ragweed [4]": {"system": "ragweed", "test": "Test A postemergence", "type": "in vivo, Ambrosia artemisiifolia", "details": "Ambrosia artemisiifolia, post-emergence, 240 h, postemergence, 10 days, 0 to 100 scale (0 no effect, 100 complete control); for pest or weed control at 500 g/ha: 500 g ai/ha, visual injury, read-out: Plant response rating, Ragweed", "outline": "as §2"}, "soybean": {"system": "soybean", "test": "Test A preemergence", "type": "in vivo, Glycine max", "details": "Glycine max, pre-emergence, 240 h, read-out: Plant response rating, Soybean; for plant injury at 125 g/ha: 125 g ai/ha, visual injury after 10 days, 0 to 100 scale, 0 is no effect, 100 is complete control; for plant injury at 500 g/ha: 500 g ai/ha, 0 to 100 scale (0 no effect, 100 complete control), 10 days", "outline": "as §2"}, "ducksalad": {"system": "ducksalad", "test": "Test B flooded paddy test", "type": "in vivo, Heteranthera limosa", "details": "Heteranthera limosa, 312 h, 250 g ai/ha, Flood, 13 days, 0 to 100 scale (0 no effect, 100 complete control); read-out: Plant response rating, Ducksalad", "outline": "as §1"}, "kochia [5]": {"system": "kochia", "test": "Test A postemergence", "type": "in vivo, Bassia scoparia", "details": "Bassia scoparia, post-emergence, 240 h, postemergence, 10 days, 0 to 100 scale (0 no effect, 100 complete control); for pest or weed control at 125 g/ha: 125 g ai/ha; for pest or weed control at 500 g/ha: 500 g ai/ha", "outline": "as §2"}, "corn": {"system": "corn", "test": "Test A preemergence", "type": "in vivo, Zea mays", "details": "Zea mays, pre-emergence, 240 h; for Corn plant response rating (crop injury, 0 = no effect, 100 = complete kill) at 125 g/ha: 125 g ai/ha, visual injury after 10 days, 0 to 100 scale, 0 is no effect, 100 is complete control; for Corn plant response rating (crop injury, 0 = no effect, 100 = complete kill) at 500 g/ha: 500 g ai/ha, 0 to 100 scale (0 no effect, 100 complete control), 10 days", "outline": "as §2"}, "kochia [6]": {"system": "kochia", "test": "Test A preemergence", "type": "in vivo, Bassia scoparia", "details": "Bassia scoparia, pre-emergence, 240 h, read-out: Plant response rating, Kochia; for pest or weed control at 125 g/ha: 125 g ai/ha, visual injury after 10 days, 0 to 100 scale, 0 is no effect, 100 is complete control; for pest or weed control at 500 g/ha: 500 g ai/ha, 0 to 100 scale (0 no effect, 100 complete control), 10 days", "outline": "as §2"}, "wheat [7]": {"system": "wheat", "test": "Test A preemergence", "type": "in vivo, Triticum aestivum", "details": "Triticum aestivum, pre-emergence, 240 h, read-out: Plant response rating, Wheat; for plant injury at 125 g/ha: 125 g ai/ha, visual injury after 10 days, 0 to 100 scale, 0 is no effect, 100 is complete control; for plant injury at 500 g/ha: 500 g ai/ha, 0 to 100 scale (0 no effect, 100 complete control), 10 days", "outline": "as §2"}, "blackgrass [8]": {"system": "blackgrass", "test": "Test A postemergence", "type": "in vivo, Alopecurus myosuroides", "details": "Alopecurus myosuroides, post-emergence, 240 h; for pest or weed control at 125 g/ha: 125 g ai/ha; for pest or weed control at 500 g/ha: 500 g ai/ha", "outline": "as §2"}, "[9]": {"details": "visual injury, read-out: Plant response rating, Foxtail, Giant"}, "[10]": {"details": "visual injury, read-out: Plant response rating, Goosegrass"}, "[11]": {"details": "visual injury, read-out: Plant response rating, Kochia"}, "[12]": {"details": "postemergence, 10 days, visual injury, 0 to 100 scale (0 no effect, 100 complete control), read-out: Plant response rating, Blackgrass"}}, "note": "Read-outs that look alike come from different tables or passages of the source."}
{"molecule": "Cc1ncn(-c2ccc(C)c(C(=O)N3C[C@H](C)Oc4c(Cl)cccc43)c2)n1", "note": "(single isomer, unassigned) [Compound 74]", "values": [{"measurement": "plant injury at 250 g/ha", "setting": "rice", "value": 20, "unit": "%"}, {"measurement": "pest or weed control at 125 g/ha", "setting": "blackgrass [1]", "value": 70, "unit": "%"}, {"measurement": "pest or weed control at 500 g/ha", "setting": "blackgrass [1]", "value": 90, "unit": "%"}, {"measurement": "pest or weed control at 125 g/ha", "setting": "foxtail, giant; [9]", "value": 90, "unit": "%"}, {"measurement": "pest or weed control at 500 g/ha", "setting": "foxtail, giant; [9]", "value": 90, "unit": "%"}, {"measurement": "pest or weed control at 125 g/ha", "setting": "goosegrass; [10]", "value": 0, "unit": "%"}, {"measurement": "pest or weed control at 500 g/ha", "setting": "goosegrass; [10]", "value": 0, "unit": "%"}, {"measurement": "pest or weed control at 125 g/ha", "setting": "ragweed [2]", "value": 0, "unit": "%"}, {"measurement": "pest or weed control at 500 g/ha", "setting": "ragweed [2]", "value": 100, "unit": "%"}, {"measurement": "plant injury at 500 g/ha", "setting": "wheat [3]", "value": 80, "unit": "%"}, {"measurement": "pest or weed control at 500 g/ha", "setting": "ragweed [4]", "value": 50, "unit": "%"}, {"measurement": "plant injury at 125 g/ha", "setting": "soybean", "value": 70, "unit": "%"}, {"measurement": "plant injury at 500 g/ha", "setting": "soybean", "value": 100, "unit": "%"}, {"measurement": "pest or weed control at 250 g/ha", "setting": "ducksalad", "value": 60, "unit": "%"}, {"measurement": "pest or weed control at 125 g/ha", "setting": "kochia [5]; [11]", "value": 70, "unit": "%"}, {"measurement": "pest or weed control at 500 g/ha", "setting": "kochia [5]; [11]", "value": 90, "unit": "%"}, {"measurement": "Corn plant response rating (crop injury, 0 = no effect, 100 = complete kill) at 125 g/ha", "setting": "corn", "value": 40, "unit": "%"}, {"measurement": "Corn plant response rating (crop injury, 0 = no effect, 100 = complete kill) at 500 g/ha", "setting": "corn", "value": 90, "unit": "%"}, {"measurement": "pest or weed control at 125 g/ha", "setting": "kochia [6]", "value": 40, "unit": "%"}, {"measurement": "pest or weed control at 500 g/ha", "setting": "kochia [6]", "value": 100, "unit": "%"}, {"measurement": "plant injury at 125 g/ha", "setting": "wheat [7]", "value": 20, "unit": "%"}, {"measurement": "plant injury at 500 g/ha", "setting": "wheat [7]", "value": 90, "unit": "%"}, {"measurement": "pest or weed control at 125 g/ha", "setting": "blackgrass [8]; [12]", "value": 70, "unit": "%"}, {"measurement": "pest or weed control at 500 g/ha", "setting": "blackgrass [8]; Postemergence, 0 to 100 scale, read-out: Plant response rating, Blackgrass", "value": 90, "unit": "%"}]}
{"molecule": "C[C@H]1CN(C(=O)c2cccc(-n3cnc(C4CCC4)n3)c2)c2cccc(Cl)c2O1", "note": "[Compound 93, [(2S)-8-Chloro-2,3-dihydro-2-methyl-4H-1,4-benzoxazin-4-yl][3-(3-cyclobutyl-1H-1,2,4-triazol-1-yl)phenyl]methanone]", "values": [{"measurement": "plant injury at 250 g/ha", "setting": "rice", "value": 0, "unit": "%"}, {"measurement": "pest or weed control at 125 g/ha", "setting": "blackgrass [1]", "value": 80, "unit": "%"}, {"measurement": "pest or weed control at 500 g/ha", "setting": "blackgrass [1]", "value": 90, "unit": "%"}, {"measurement": "pest or weed control at 125 g/ha", "setting": "foxtail, giant; read-out: Foxtail, Giant plant response rating", "value": 60, "unit": "%"}, {"measurement": "pest or weed control at 500 g/ha", "setting": "foxtail, giant; [9]", "value": 90, "unit": "%"}, {"measurement": "pest or weed control at 125 g/ha", "setting": "goosegrass; read-out: Goosegrass plant response rating", "value": 20, "unit": "%"}, {"measurement": "pest or weed control at 500 g/ha", "setting": "goosegrass; [10]", "value": 70, "unit": "%"}, {"measurement": "pest or weed control at 125 g/ha", "setting": "ragweed [2]", "value": 0, "unit": "%"}, {"measurement": "pest or weed control at 500 g/ha", "setting": "ragweed [2]", "value": 0, "unit": "%"}, {"measurement": "plant injury at 125 g/ha", "setting": "wheat [3]; 125 g ai/ha, read-out: Wheat plant response rating", "value": 20, "unit": "%"}, {"measurement": "plant injury at 500 g/ha", "setting": "wheat [3]", "value": 20, "unit": "%"}, {"measurement": "pest or weed control at 125 g/ha", "setting": "ragweed [4]; 125 g ai/ha, read-out: Ragweed plant response rating", "value": 50, "unit": "%"}, {"measurement": "pest or weed control at 500 g/ha", "setting": "ragweed [4]", "value": 50, "unit": "%"}, {"measurement": "plant injury at 125 g/ha", "setting": "soybean", "value": 30, "unit": "%"}, {"measurement": "plant injury at 500 g/ha", "setting": "soybean", "value": 30, "unit": "%"}, {"measurement": "pest or weed control at 250 g/ha", "setting": "ducksalad", "value": 0, "unit": "%"}, {"measurement": "pest or weed control at 125 g/ha", "setting": "kochia [5]; read-out: Kochia plant response rating", "value": 80, "unit": "%"}, {"measurement": "pest or weed control at 500 g/ha", "setting": "kochia [5]; [11]", "value": 90, "unit": "%"}, {"measurement": "Corn plant response rating (crop injury, 0 = no effect, 100 = complete kill) at 125 g/ha", "setting": "corn", "value": 10, "unit": "%"}, {"measurement": "Corn plant response rating (crop injury, 0 = no effect, 100 = complete kill) at 500 g/ha", "setting": "corn", "value": 10, "unit": "%"}, {"measurement": "pest or weed control at 125 g/ha", "setting": "kochia [6]", "value": 50, "unit": "%"}, {"measurement": "pest or weed control at 500 g/ha", "setting": "kochia [6]", "value": 100, "unit": "%"}, {"measurement": "plant injury at 125 g/ha", "setting": "wheat [7]", "value": 0, "unit": "%"}, {"measurement": "plant injury at 500 g/ha", "setting": "wheat [7]", "value": 10, "unit": "%"}, {"measurement": "pest or weed control at 125 g/ha", "setting": "blackgrass [8]; postemergence, 10 days, 0 to 100 scale (0 no effect, 100 complete control), read-out: Blackgrass plant response rating", "value": 70, "unit": "%"}, {"measurement": "pest or weed control at 500 g/ha", "setting": "blackgrass [8]; [12]", "value": 90, "unit": "%"}]}
